Test results as given in patent publication US9637520B2, “Template-fixed peptidomimetics with CXCR7 modulating activity” (POLYPHOR AG, priority 2010, dated 2017).
Starred links: 1 amine or outer side, 2 acyl side, 3 side chain; linkers in the order of their positions; H or OH if unused. Non-standard residues stand in square brackets, D forms with d. Residues, ends and D or L forms follow the SMILES beside them. *: point of attachment. Arg(Nω,Nω'-propylene) = N[C@@H](CCCNC1=NCCCN1)C(=O)O; dPro(cis-4-NH2) = N[C@H]1CN[C@@H](C(=O)O)C1; dPro(4S-NH2) = N[C@@H]1CN[C@@H](C(=O)O)C1; Pro(4R-NH2) = N[C@H]1CN[C@H](C(=O)O)C1; 2Nal = N[C@@H](Cc1ccc2ccccc2c1)C(=O)O; Pro(3S-OH) = O=C(O)[C@H]1NCC[C@@H]1O; Tiq1c(1S) = O=C(O)[C@H]1NCCc2ccccc21; X2 = O=C([C@H](Cn1ncnn1)N[*:1])[*:2]; Pyrazinecarbonyl = O=C(c1cnccn1)*; hArg = N=C(N)NCCCC[C@H](N)C(=O)O; Tic = O=C(O)[C@@H]1Cc2ccccc2CN1; dTic = O=C(O)[C@H]1Cc2ccccc2CN1; Orn = NCCC[C@H](N)C(=O)O

Each molecule was assayed against T1, CXCR7 (Homo sapiens, UniProt P25106) (assay: CXCR7 β-arrestin recruitment assay (PathHunter CHO-CXCR7, DiscoverX), agonistic assay). Conditions: agonistic assay; CHO CXCR7 β-arrestin cells; 90 min at 37° C.; chemiluminescence; read-out: β-Arrestin EC50.
T1 construct: host or cells: CHO (PathHunter CHO-CXCR7 β-arrestin cells)
Format: cell-based
Description: Lyophilized peptides were weighed on a Microbalance (Mettler MX5) and dissolved in DMSO to a final concentration of 10 mM unless otherwise stated. Stock solutions were kept at +4° C., and protected from light.
2.2 CXCR7 β-Arrestin Recruitment Assay
The PathHunter CHO-CXCR7 (DiscoverX) assay was performed according to the manufacturer's protocol. In brief, CHO CXCR7 β-arrestin cells were seeded at a density of 5000 cells per well in 40 μl of F12 medium in black 96-half volume well culture plates and incubated overnight at 37° C. in a humidified atmosphere with 5% CO2. The next day, serial dilutions of PEM compounds have been prepared in DMSO and subsequently diluted in HBSS buffer containing 0.1% BSA.
For agonistic assay, 10 μl of compound solution or a solution of stromal cell-derived factor-1 (SDF-1) as positive control was added to the cells with a final DMSO concentration of 1% (v/v). The plate was incubated for 90 min at 37° C. in 5% CO2 incubator with gentle shaking (300 rpm) before addition of 40 μl of detection reagent per well. Reaction was developed for 90 min at room temperature in the dark with shaking, and chemiluminescence was measured with a Topcount (Perkin Elmer) luminescence counter.

T1 sequence (P25106 whole entry): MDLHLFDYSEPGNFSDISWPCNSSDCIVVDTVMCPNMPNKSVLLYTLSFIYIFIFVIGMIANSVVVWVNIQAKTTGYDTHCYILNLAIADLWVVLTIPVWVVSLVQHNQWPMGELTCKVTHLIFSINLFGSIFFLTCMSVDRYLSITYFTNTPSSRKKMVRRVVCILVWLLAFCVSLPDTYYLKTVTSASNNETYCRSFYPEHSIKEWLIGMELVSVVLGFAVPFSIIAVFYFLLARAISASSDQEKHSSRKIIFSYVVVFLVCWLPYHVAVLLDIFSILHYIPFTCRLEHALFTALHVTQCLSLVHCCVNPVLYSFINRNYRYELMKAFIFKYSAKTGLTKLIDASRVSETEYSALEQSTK

First: CC[C@H](C)[C@@H]1NC(=O)[C@H]([C@@H](C)O)NC(=O)[C@H]2Cc3ccccc3CN2C(=O)[C@H](Cc2c[nH]c3ccccc23)NC(=O)[C@H](CCCNC(=N)N)NC(=O)[C@@H](CCCNC(=N)N)NC1=O [compound 67, cyclo(-Ile-^DArg-Arg-Trp-^DTic-Thr-)] (cyclo(I[dR]RW[dTic]T))
Second: CC[C@H](C)[C@@H]1NC(=O)[C@H]([C@@H](C)O)NC(=O)[C@H]2CCCN2C(=O)[C@H](Cc2c[nH]c3ccccc23)NC(=O)[C@H](CCCNC(=O)c2cnccn2)NC(=O)[C@@H](CCCNC(=N)N)NC1=O [compound 64, cyclo(-Ile-^DArg-Orn(A41)-Trp-^DPro-Thr-)] (cyclo(I[dR][Orn](Pyrazinecarbonyl)W[dP]T))
The EC50 of the first is 36-fold lower: 14.2 ± 5.2 nM for the first, 518 ± 20.9 nM for the second.

`N=C(N)NCCC[C@@H]1NC(=O)[C@H](Cc2c[nH]c3ccccc23)NC(=O)[C@@H](Cc2ccccc2)NC(=O)[C@H](Cc2c[nH]c3ccccc23)NC(=O)[C@@H]2C[C@@H](N)CN2C(=O)[C@H]2CCCN2C1=O` [compound 45, cyclo(-Trp-^DPhe-Trp-Arg-^DPro-Pro((4R)NH2)—)] (cyclo(R[dP][Pro(4R-NH2)]W[dF]W)) and `N=C(N)NCCC[C@@H]1NC(=O)[C@H](Cc2c[nH]c3ccccc23)NC(=O)[C@@H](Cc2ccccc2)NC(=O)[C@H](Cn2ncnn2)NC(=O)[C@@H]2Cc3ccccc3CN2C(=O)[C@H]2C[C@@H](N)CN2C1=O` [compound 75, cyclo(-Ala(Tet)-^DPhe-Trp-Arg-^DPro((4R)NH2)-Tic-)] (cyclo(R[dPro(cis-4-NH2)][Tic][X2][dF]W)) are within error of each other in EC50: 26.9 ± 12.6 nM for the first, 28.1 ± 5.1 nM for the second.

`N=C(N)NCCC[C@@H]1NC(=O)[C@@H]2Cc3ccccc3CN2C(=O)[C@H]2C[C@H](N)CN2C(=O)[C@H](CCCNC(=N)N)NC(=O)[C@H](Cc2c[nH]c3ccccc23)NC(=O)[C@@H](Cc2ccccc2)NC1=O` [compound 40, cyclo(-Arg-^DPhe-Trp-Arg-^DPro((4S)NH2)-Tic-)] (cyclo(R[dF]WR[dPro(4S-NH2)][Tic])) and `N=C(N)NCCCC[C@@H]1NC(=O)[C@@H]2Cc3ccccc3CN2C(=O)[C@H]2C[C@@H](N)CN2C(=O)[C@H](CCCNC(=N)N)NC(=O)[C@H](Cc2c[nH]c3ccccc23)NC(=O)[C@@H](Cc2ccccc2)NC1=O` [compound 35, cyclo(-hArg-^DPhe-Trp-Arg-^DPro((4R)NH2)-Tic-)] (cyclo(R[dPro(cis-4-NH2)][Tic][hArg][dF]W)) are within error of each other in EC50: 13.1 ± 4.4 nM for the first, 12.2 ± 5.4 nM for the second.

`CC[C@H](C)[C@@H]1NC(=O)[C@@H]2[C@@H](O)CCN2C(=O)[C@H]2CCCN2C(=O)[C@H](Cc2c[nH]c3ccccc23)NC(=O)[C@H](CCCNC(=N)N)NC(=O)[C@@H](CCCNC(=N)N)NC1=O` [Ex. 21, cyclo(-Ile-^DArg-Arg-Trp-^DPro-Pro((3S)OH)—)] (cyclo(I[dR]RW[dP][Pro(3S-OH)])) and `CC[C@H](C)[C@@H]1NC(=O)[C@H]([C@@H](C)O)NC(=O)[C@H]2CCCN2C(=O)[C@H](Cc2ccccc2)NC(=O)[C@H](CCCNC(=N)N)NC(=O)[C@@H](CCCNC(=N)N)NC1=O` [Ex. 6, cyclo(-Ile-^DArg-Arg-Phe-^DPro-Thr-)] (cyclo(F[dP]TI[dR]R)) are within error of each other in EC50: 123 ± 85.2 nM for the first, 46.4 ± 57.9 nM for the second.

Compared with `N[C@@H]1C[C@@H]2C(=O)N3CCc4ccccc4[C@H]3C(=O)N[C@@H](Cc3c[nH]c4ccccc34)C(=O)N[C@H](Cc3ccccc3)C(=O)N[C@@H](Cc3c[nH]c4ccccc34)C(=O)N[C@@H](CCCNC3=NCCCN3)C(=O)N2C1` [compound 79, cyclo(-Trp-^DPhe-Trp-Orn(A56)-^DPro((4R)NH2)-Tiq-)] (cyclo(W[dF]W[Arg(Nω,Nω'-propylene)][dPro(cis-4-NH2)][Tiq1c(1S)])), `CC[C@H](C)[C@@H]1NC(=O)[C@H]([C@@H](C)O)NC(=O)[C@H]2CCCN2C(=O)[C@H](Cc2ccc3ccccc3c2)NC(=O)[C@H](CCCNC(=N)N)NC(=O)[C@@H](CCCNC(=N)N)NC1=O` [compound 15, cyclo(-Ile-^DArg-Arg-2Nal-^DPro-Thr-)] (cyclo([2Nal][dP]TI[dR]R)) is 120-fold lower in EC50: 46.9 ± 12.5 nM for the first, 0.4 ± 0.1 nM for the second. The second is the more potent here.
